Data: patent US11345669B2, “Urea derivatives and methods of use thereof” (NodThera Limited, priority 2017, dated 2022)

system: IL1-β release upon NLRP3 activation in peripheral blood mononuclear cells (PBMC); test: PBMC IC50 Determination Assay; type: cell-based; conditions: Homo sapiens, PBMC, read-out: PBMCs, IC50, μM
Experimental: PBMC IC50 Determination Assay
The compounds of the present disclosure were tested for their inhibitory activity against IL1-β release upon NLRP3 activation in peripheral blood mononuclear cells (PBMC).
Isolated cells were seeded into the wells of a 96-well plate and incubated for 3 h with lipopolysaccharide (LPS). Following medium exchange, the compounds of the present disclosure were added (a single compound per well) and the cells were incubated for 30 min. Next, the cells were stimulated either with ATP (5 mM) or nigericin (10 μM) for 1 h and the cell culture media from the wells were collected for further analysis.
The release of IL-1β into the media was determined by a quantitative detection of IL-1β in 5 the media using an IL-1β enzyme-linked immunosorbent assay (ELISA) Ready-SET-Go!, eBioscience cat. […] Subsequently, plates were blocked with blocking buffer for 1 h at room temperature (rt) and after washing with a buffer (PBS with 0.05% Tween-20) incubated with protein standard and culture media. […] Plates were washed and incubated with HRP-streptavidin for 30 min at rt and washed again. The signal was developed after addition of 3,39,S,59-tetramethylbenzidine-peroxidase (TMB) until color appeared and the reaction was stopped by 2 M H2SO4. A microplate spectrophotometer (BioTek) was used to detect signals with 450 nm. The detection range of IL-1β ELISA was […].

SMILES	IC50 [µM]
CCOC(=O)CNC(=O)Nc1cc2c(c3c1CCCC3)CCC2 [Example 2T, Ethyl 2-[({1H,2H,3H,6H,7H,8H,9H-cyclopenta[a]naphthalen-5-yl}carbamoyl)amino] acetate]	3.1

same assay, conditions: Homo sapiens; PBMC from buffy coats, LPS 3 h, compound 30 min, then ATP (5 mM) or nigericin (10 μM) for 1 h; IL-1β in media by ELISA; read-out: PBMCs, IC50

SMILES	IC50 [µM]
CCOC(=O)C(Cc1ccncn1)NC(=O)Nc1c2c(cc3c1CCC3)CCC2 (stereo not drawn) [Example 2AI, ethyl 2-{[(1,2,3,5,6,7-hexahydro-s-indacen-4-yl)carbamoyl]amino}-3-(pyrimidin-4-yl)propanoate]	6.8
COC(=O)[C@@H](Cc1cccc(NC(C)=O)c1)NC(=O)Nc1c2c(cc3c1CCC3)CCC2 [Example 2P, Methyl(2R)-3-(3-acetamidophenyl)-2-{[(1,2,3,5,6,7-hexahydro-s-indacen-4-yl)carbamoyl]amino}propanoate]	0.14
COC(=O)[C@@H](Cc1cccc(N2CCCC2=O)c1)NC(=O)Nc1c2c(cc3c1CCC3)CCC2 [Example 2R, Methyl(2R)-2-{[(1,2,3,5,6,7-hexahydro-s-indacen-4-yl)carbamoyl]amino}-3-[3-(2-oxopyrrolidin-1-yl)phenyl]propanoate]	0.33
CCOC(=O)C(Cc1ccnnc1)NC(=O)Nc1c2c(cc3c1CCC3)CCC2 (stereo not drawn) [Example 2AG, Ethyl 2-{[(1,2,3,5,6,7-hexahydro-s-indacen-4-yl)carbamoyl]amino}-3-(pyridazin-4-yl)propanoate]	6
COC(=O)[C@@H](CCSC)NC(=O)Nc1c2c(cc3c1CCC3)CCC2 [Example 2O, Methyl(2R)-2-{[(1,2,3,5,6,7-hexahydro-s-indacen-4-yl)carbamoyl]amino}-4-(methylsulfanyl)butanoate]	3.2
CCOC(=O)CNC(=O)Nc1c2c(cc3c1CCC3)CCC2 [Example 2X, ethyl 2-{[(1,2,3,5,6,7-hexahydro-s-indacen-4-yl)carbamoyl]amino}acetate]	1.5
COC(=O)CNC(=O)Nc1c2c(cc3c1CCC3)CCC2 [Example 2EE, methyl 2-{[(1,2,3,5,6,7-hexahydro-s-indacen-4-yl)carbamoyl]amino}acetate]	3.7
CCOC(=O)C(Cc1cnoc1)NC(=O)Nc1c2c(cc3c1CCC3)CCC2 (stereo not drawn) [Example 2ZZ, Ethyl 2-{[(1,2,3,5,6,7-hexahydro-s-indacen-4-yl)carbamoyl]amino}-3-(1,2-oxazol-4-yl)propanoate]	3.3
O=C(Nc1c2c(cc3c1CCC3)CCC2)N[C@H](Cc1cccnc1)C(=O)OC1CCCC1 [Example 2PP, cyclopentyl(2R)-2-{[(1,2,3,5,6,7-hexahydro-s-indacen-4-yl)carbamoyl]amino}-3-(pyridin-3-yl)propanoate]	0.24
COC(=O)[C@@H](Cc1cccc(CO)c1)NC(=O)Nc1c2c(cc3c1CCC3)CCC2 [Example 2M, Methyl(2R)-2-{[(1,2,3,5,6,7-hexahydro-s-indacen-4-yl)carbamoyl]amino}-3-[3-(hydroxymethyl)phenyl]propanoate]	0.38
COC(=O)C(Cn1cc(C)cn1)NC(=O)Nc1c2c(cc3c1CCC3)CCC2 (stereo not drawn) [Example 2TT, Methyl 2-{[(1,2,3,5,6,7-hexahydro-s-indacen-4-yl)carbamoyl]amino}-3-(4-methyl-1H-pyrazol-1-yl)propanoate]	14
CCOC(=O)[C@@H](Cc1cccnc1)NC(=O)Nc1c2c(cc3c1CCC3)CCC2 [Example 2RR, ethyl(2R)-2-{[(1,2,3,5,6,7-hexahydro-s-indacen-4-yl)carbamoyl]amino}-3-(pyridin-3-yl)propanoate]	1.7
COC(=O)[C@@H](Cc1cccnc1)NC(=O)Nc1c2c(cc3c1CCC3)CCC2 [Example 2H, Methyl (2R)-2-{[(1,2,3,5,6,7-hexahydro-s-indacen-4-yl)carbamoyl]amino}-3-(pyridin-3-yl)propanoate]	0.88
O=C(Nc1c2c(cc3c1CCC3)CCC2)N[C@H](Cc1cccnc1)C(=O)OC1CCC1 [Example 2NN, cyclobutyl (2R)-2-{[(1,2,3,5,6,7-hexahydro-s-indacen-4-yl)carbamoyl]amino}-3-(pyridin-3-yl)propanoate]	0.6
COC(=O)[C@@H](Cc1cccc(C#N)c1)NC(=O)Nc1c2c(cc3c1CCC3)CCC2 [Example 2E, Methyl(2R)-3-(3-cyanophenyl)-2-{[(1,2,3,5,6,7-hexahydro-s-indacen-4-yl)carbamoyl]amino}propanoate]	1.7
CCOC(=O)C(Cc1nc(C)no1)NC(=O)Nc1c2c(cc3c1CCC3)CCC2 (stereo not drawn) [Example 2XX, Ethyl 2-{[(1,2,3,5,6,7-hexahydro-s-indacen-4-yl)carbamoyl]amino}-3-(3-methyl-1,2,4-oxadiazol-5-yl)propanoate]	5.1
COC(=O)[C@@H](Cc1ccc(O)cc1)NC(=O)Nc1c2c(cc3c1CCC3)CCC2 [Example 2Z, methyl(2R)-2-{[(1,2,3,5,6,7-hexahydro-s-indacen-4-yl)carbamoyl]amino}-3-(4-hydroxyphenyl)propanoate]	0.1
COC(=O)C(Cc1cccc(CO)c1)NC(=O)Nc1c2c(cc3c1CCC3)CCC2 (stereo not drawn) [Example 2G, Methyl2-{[(1,2,3,5,6,7-hexahydro-s-indacen-4-yl)carbamoyl]amino}-3-[3-(hydroxymethyl)phenyl]propanoate]	1.4
COC(=O)[C@@H](Cc1cnccn1)NC(=O)Nc1c2c(cc3c1CCC3)CCC2 [Example 2AF, Methyl (2R)-2-{[(1,2,3,5,6,7-hexahydro-s-indacen-4-yl)carbamoyl]amino}-3-(pyrazin-2-yl)propanoate]	0.46
COC(=O)[C@@H](Cc1cccs1)NC(=O)Nc1c2c(cc3c1CCC3)CCC2 [Example 2CC, methyl (2R)-2-{[(1,2,3,5,6,7-hexahydro-s-indacen-4-yl)carbamoyl]amino}-3-(thiophen-2-yl)propanoate]	0.5
